Measured values published in patent US20140303373A1, “CRYSTALLINE FORM OF TIOTROPIUM BROMIDE” (CERBIOS-PHARMA SA, priority 2013, published 2014).

Columns and labels:
[1] = accelerated stability study, related substances by HPLC (Eur. Ph. 07/2010:2420); assay type: physicochemical
Method: The tiotropium bromide accelerated stability studies were performed storing the drug substance, prepared as described in the previous examples, at 40±2° C./75±5% RH. Stability was evaluated in dark glass vial with screw cap. The frequency of the analyses performed has included five test points: 0, 7 days, 1, 3, and 6 months. Related substances amount of tiotropium bromide was measured by HPLC, following the Eur. Ph. procedure (07/2010:2420).

[2] = stability at 25° C./60% relative humidity (impurity profile and X-ray spectrum); assay type: physicochemical

For `C[N+]1(C)C2CC(OC(=O)C(O)(c3cccs3)c3cccs3)CC1[C@@H]1O[C@H]21.[Br-]` (some centres unmarked) [Tiotropium Bromide], the “impurity profile and X-ray spectrum on storage” value ([1]; 40° C./75% RH) was “did not change for at least six months”, the “Related substances: Impurity A, RRT 0.40-0.47” value ([1]; 40±2° C./75±5% RH, 7 days) was 0.02 and the “Related substances: Impurity B, RRT 0.79-0.84” value (from here on “Related substances: Impurity B”) ([1]; 40±2° C./75±5% RH, 7 days) was 0.04. The “Related substances: unnamed, RRT 0.98” value ([1]; 40±2° C./75±5% RH, 7 days) was 0.03, the “Related substances: unnamed, RRT 1.21-1.35” value ([1]; 40±2° C./75±5% RH, 7 days) was 0.01 and the “Related substances: unnamed, RRT 1.22-1.37” value ([1]; 40±2° C./75±5% RH, 7 days) was 0.02. The Sum of impurities ([1]; 40±2° C./75±5% RH, 7 days) was 0.12, the “Tiotropium Bromide, RRT 1.00 (HPLC)” value ([1]; 40±2° C./75±5% RH, 7 days) was 99.88 and the “Related substances: Impurity A, RRT 0.40-0.47” value ([1]; 40±2° C./75±5% RH, 30 d) was 0.02. For the same compound, the “Related substances: Impurity B” value ([1]; 40±2° C./75±5% RH, 30 d) was 0.04, the “Related substances: unnamed, RRT 0.98” value ([1]; 40±2° C./75±5% RH, 30 d) was 0.03 and the “Related substances: unnamed, RRT 1.22-1.37” value ([1]; 40±2° C./75±5% RH, 30 d) was 0.03. For the same compound, the Sum of impurities ([1]; 40±2° C./75±5% RH, 30 d) was 0.12, the “Tiotropium Bromide, RRT 1.00 (HPLC)” value ([1]; 40±2° C./75±5% RH, 30 d) was 99.88 and the “Related substances: Impurity A, RRT 0.40-0.47” value ([1]; 40±2° C./75±5% RH, 90 d) was 0.02. For the same compound, the “Related substances: Impurity B” value ([1]; 40±2° C./75±5% RH, 90 d) was 0.04, the “Related substances: Impurity E, RRT 1.73” value ([1]; 40±2° C./75±5% RH, 90 d) was 0.01 and the “Related substances: unnamed, RRT 0.39” value ([1]; 40±2° C./75±5% RH, 90 d) was 0.02. For the same compound, the “Related substances: unnamed, RRT 0.98” value ([1]; 40±2° C./75±5% RH, 90 d) was 0.02, the “Related substances: unnamed, RRT 1.21-1.35” value ([1]; 40±2° C./75±5% RH, 90 d) was 0.02 and the “Related substances: unnamed, RRT 1.22-1.37” value ([1]; 40±2° C./75±5% RH, 90 d) was 0.03. The “Related substances: unnamed, RRT 1.50-1.53” value ([1]; 40±2° C./75±5% RH, 90 d) was 0.01, the Sum of impurities ([1]; 40±2° C./75±5% RH, 90 d) was 0.17 and the “Tiotropium Bromide, RRT 1.00 (HPLC)” value ([1]; 40±2° C./75±5% RH, 90 d) was 99.83. The “Related substances: Impurity A, RRT 0.40-0.47” value ([1]; 40±2° C./75±5% RH, 180 d) was 0.02, the “Related substances: Impurity B” value ([1]; 40±2° C./75±5% RH, 180 d) was 0.04 and the “Related substances: unnamed, RRT 0.98” value ([1]; 40±2° C./75±5% RH, 180 d) was 0.02. The “Related substances: unnamed, RRT 1.21-1.35” value ([1]; 40±2° C./75±5% RH, 180 d) was 0.02, the “Related substances: unnamed, RRT 1.22-1.37” value ([1]; 40±2° C./75±5% RH, 180 d) was 0.03 and the “Related substances: unnamed, RRT 1.50-1.53” value ([1]; 40±2° C./75±5% RH, 180 d) was 0.01. For the same compound, the Sum of impurities ([1]; 40±2° C./75±5% RH, 180 d) was 0.14, the “Tiotropium Bromide, RRT 1.00 (HPLC)” value ([1]; 40±2° C./75±5% RH, 180 d) was 99.86 and the “Related substances: Impurity A, RRT 0.40-0.47” value ([1]; 40±2° C./75±5% RH, Time 0) was 0.02. The “Related substances: Impurity B” value ([1]; 40±2° C./75±5% RH, Time 0) was 0.04, the “Related substances: unnamed, RRT 0.98” value ([1]; 40±2° C./75±5% RH, Time 0) was 0.03 and the “Related substances: unnamed, RRT 1.21-1.35” value ([1]; 40±2° C./75±5% RH, Time 0) was 0.01. The “Related substances: unnamed, RRT 1.22-1.37” value ([1]; 40±2° C./75±5% RH, Time 0) was 0.02, the “Related substances: unnamed, RRT 1.50-1.53” value ([1]; 40±2° C./75±5% RH, Time 0) was 0.01 and the Sum of impurities ([1]; 40±2° C./75±5% RH, Time 0) was 0.13. For the same compound, the “Tiotropium Bromide, RRT 1.00 (HPLC)” value ([1]; 40±2° C./75±5% RH, Time 0) was 99.87 and the “impurity profile and X-ray spectrum on storage” value [2] was “did not change for at least six months”.
